This experiment concerns the target ALK2 (Homo sapiens (Human), UniProt Q04771). The experiment is described as follows: ALK2 inhibition, LanthaScreen Eu Kinase Binding Assay (ThermoFisher Scientific / Life Technologies). The conditions noted are these: read-out: Measured Ki (IC50) Value for Compounds: IC50. As for the experimental part: Biochemical assays to measure the inhibitory effects of the compounds were performed by ThermoFisher Scientific (Life Technologies). ALK2 inhibition was tested using LanthaScreen™ Eu Kinase Binding Assay screening protocol.
A general note: TR-FRET usually uses a lanthanide donor and a delayed reading to cut background.
ALK2, sequence (Q04771 21-509): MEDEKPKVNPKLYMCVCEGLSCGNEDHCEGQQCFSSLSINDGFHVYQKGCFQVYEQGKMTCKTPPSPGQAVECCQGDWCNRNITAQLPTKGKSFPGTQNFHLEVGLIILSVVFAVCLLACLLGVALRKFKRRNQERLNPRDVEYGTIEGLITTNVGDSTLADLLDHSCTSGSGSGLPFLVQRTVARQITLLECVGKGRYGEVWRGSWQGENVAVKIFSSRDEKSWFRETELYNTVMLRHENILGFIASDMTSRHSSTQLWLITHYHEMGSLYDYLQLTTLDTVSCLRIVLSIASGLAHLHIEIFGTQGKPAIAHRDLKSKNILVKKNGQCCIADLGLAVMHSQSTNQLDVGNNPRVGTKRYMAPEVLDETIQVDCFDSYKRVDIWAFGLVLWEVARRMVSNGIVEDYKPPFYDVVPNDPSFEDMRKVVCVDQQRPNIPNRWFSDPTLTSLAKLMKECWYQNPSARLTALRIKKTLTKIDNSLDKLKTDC
For `Cn1cnc(Nc2nc(Cl)nc3ccoc23)c1` [Compound 1b, 2-chloro-N-(1-methyl-1H-imidazol-4-yl)furo[3,2-d]pyrimidin-4-amine], the 50% inhibitory concentration (IC50) – broadly, the concentration at which inhibition is half-maximal – is above 1000 nM.

Consider `Cn1cnc(Nc2nc(N3CCC[C@H]3CO)nc3ccoc23)c1` [Compound 2a, (S)-(1-(4-((1-methyl-1H-imidazol-4-yl)amino)furo[3,2-d]pyrimidin-2-yl)pyrrolidin-2-yl)methanol], for which the half-inhibitory concentration (IC50) fell in the range of 100 to 1000 nM.

Consider `Cn1cnc(Nc2nc(N3CCC[C@@H]3CO)nc3ccoc23)c1` [Compound 3a, (R)-(1-(4-((1-methyl-1H-imidazol-4-yl)amino)furo[3,2-d]pyrimidin-2-yl)pyrrolidin-2-yl)methanol], for which the half-inhibitory concentration (IC50) was above 1000 nM.

Take `Cn1cnc(Nc2nc(Cl)nn3cccc23)c1` [Compound 4b, 2-chloro-N-(1-methyl-1H-imidazol-4-yl)pyrrolo[2,1-f][1,2,4]triazin-4-amine]: the half-inhibitory concentration (IC50) was above 1000 nM.

As for `Cn1cnc(Nc2nc(N3CCCC3c3ccccn3)nn3cccc23)c1` (stereo not drawn) [Compound 4c, N-(1-methyl-1H-imidazol-4-yl)-2-(2-(pyridin-2-yl)pyrrolidin-1-yl)pyrrolo[1,2-f][1,2,4]triazin-4-amine], the half-maximal inhibitory concentration (IC50) is below 100 nM.

Regarding `Cn1cnc(Nc2nc(N3CCCC3c3ccccn3)nc3ccoc23)c1` (stereo not drawn) [Compound 5a, N-(1-methyl-1H-imidazol-4-yl)-2-(2-(pyridin-2-yl)pyrrolidin-1-yl)furo[3,2-d]pyrimidin-4-amine], the 50% inhibitory concentration (IC50) was below 100 nM.

Consider `Cn1cnc(Nc2nc(N3CCC[C@H]3CO)nn3cccc23)c1` [Compound 6a, (S)-(1-(4-(1-methyl-1H-imidazol-4-ylamino)pyrrolo[1,2-f][1,2,4]triazin-2-yl)pyrrolidin-2-yl)methanol], for which the IC50 was in the range of 100 to 1000 nM.

In the case of `Cn1cnc(Nc2nc(N3CCC[C@@H]3CO)nn3cccc23)c1` [Compound 7a, (R)-(1-(4-(1-methyl-1H-imidazol-4-ylamino)pyrrolo[1,2-f][1,2,4]triazin-2-yl)pyrrolidin-2-yl)methanol], the IC50 was above 1000 nM.

Regarding `OC[C@@H]1CCCN1c1nc(Nc2cn(-c3ccccc3)cn2)c2cccn2n1` [Compound 8c, (S)-(1-(4-((1-phenyl-1H-imidazol-4-yl)amino)pyrrolo[2,1-f][1,2,4]triazin-2-yl)pyrrolidin-2-yl)methanol], the IC50 was below 100 nM.

For the compound `c1ccc(-n2cnc(Nc3nc(N4CCCC4c4ccccn4)nn4cccc34)c2)cc1` (stereo not drawn) [Compound 9a, N-(1-phenyl-1H-imidazol-4-yl)-2-(2-(pyridin-2-yl)pyrrolidin-1-yl)pyrrolo[2,1-f][1,2,4]triazin-4-amine], the 50% inhibitory concentration (IC50) was in the range of 100 to 1000 nM.

As for `Cn1cnc(Nc2nc(N3CCCC3c3ccccc3)nn3cccc23)c1` (stereo not drawn) [Compound 10a, N-(1-methyl-1H-imidazol-4-yl)-2-(2-phenylpyrrolidin-1-yl)pyrrolo[2,1-f][1,2,4]triazin-4-amine], the IC50 was below 100 nM.

As for `Cn1cnc(Nc2nc(N3CCCC3c3cccnc3)nc3ccoc23)c1` (stereo not drawn) [Compound 11a, N-(1-methyl-1H-imidazol-4-yl)-2-(2-(pyridin-3-yl)pyrrolidin-1-yl)furo[3,2-d]pyrimidin-4-amine], the IC50 was below 100 nM.

Take `Cn1cnc(Nc2nc(N3CCCC3c3ccccn3)nc3ccsc23)c1` (stereo not drawn) [Compound 12c, N-(1-methyl-1H-imidazol-4-yl)-2-(2-(pyridin-2-yl)pyrrolidin-1-yl)thieno[3,2-d]pyrimidin-4-amine]: the 50% inhibitory concentration (IC50) is below 100 nM.

Take `Cn1cnc(Nc2nc(N3CCCC3c3ccccc3)nc3ccoc23)c1` (stereo not drawn) [Compound 13a, N-(1-methyl-1H-imidazol-4-yl)-2-(2-phenylpyrrolidin-1-yl)furo[3,2-d]pyrimidin-4-amine]: the IC50 is below 100 nM.

Take `OC[C@@H]1CCCN1c1nc(Nc2cn(-c3ccccc3)cn2)c2occc2n1` [Compound 14b, (S)-(1-(4-((1-phenyl-1H-imidazol-4-yl)amino)furo[3,2-d]pyrimidin-2-yl)pyrrolidin-2-yl)methanol]: the IC50 is below 100 nM.

Values taken from patent US11661426B2, “Imidazole-containing inhibitors of ALK2 kinase” (BioCryst Pharmaceuticals, Inc., priority 2017, dated 2023).
